Reference: article PMC3700073, “Synthesis and Biological Activity of New Thiopyrano[2,3-d]thiazoles Containing a Naphthoquinone Moiety” (Scientia Pharmaceutica, 2013)
Converted amounts (≈) assume the structure as drawn. Read-outs that look alike come from different tables or passages of the source.

Experiments:
[1] = test system: Mycobacterium tuberculosis H37Rv strain (ATCC 27294); assay: Antimycobacterial pre-screening at 6.25 μg/mL (BACTEC 460 radiometric system); assay type: cell-based; details: M. tuberculosis H37Rv; for inhibition at 6.25 µg/mL: 6.25 μg/mL; for MIC90: pre-screening, read-out: Estimation of MIC90
male mice = assay: Acute toxicity in vivo, median lethal dose; details: intraperitoneal, approximate LD50 (Litchfield and Wilcoxon)
Procedure: The synthesized compounds were evaluated for their approximate LD50 in male mice. The mice were kept under a constant temperature and humidity in sterile cages with water and food. The stock solutions of the compounds used in this study were prepared immediately before usage and injected intraperitoneally (ip). The LD50 values (Tab. 3) were calculated using the method described by Litchfield and Wilcoxon.
The median lethal dose (LD50), the dose of the selected compounds that causes 50% mortality in mice, was determined from dose–response curves with at least four doses by the method of Litchfield and Wilcoxon.

in vitro = details: African green monkey
M. tuberculosis H37Rv = assay: Microplate Alamar Blue Assay (MABA), MIC determination; assay type: cell-based, Mycobacterium tuberculosis; details: two-fold dilution from 100.00 to 0.19 μg/mL
[2] = Cytotoxicity in VERO cells (MTT); details: African green monkey
[3] = Mycobacterium tuberculosis, H37RV, read-out: MIC90

## COC(=O)c1ccc(C2C3=C(Sc4[nH]c(=O)sc42)C(=O)c2ccccc2C3=O)cc1 (stereo not drawn) [Compound 4c, Methyl 4-(2,5,10-trioxo-3,5,10,11-tetrahydro-2H-benzo[6,7]thiochromeno[2,3-d][1,3]thiazol-11-yl)benzoate]
[1]
  inhibition at 6.25 µg/mL: ≥ 90%
  MIC90: < 6.25 µg/mL
Male mice
  LD50ip: 180 mg/kg

## O=C1C2=C(C(=O)c3ccccc31)C(c1ccc(Cl)cc1)c1sc(=O)[nH]c1S2 (stereo not drawn) [Compound 4g, 11-(4-Chlorophenyl)-3,11-dihydro-2H-benzo[6,7]thiochromeno[2,3-d][1,3]thiazole-2,5,10-trione]
[1]
  inhibition at 6.25 µg/mL: ≥ 90%
  MIC90: < 6.25 µg/mL
Male mice
  LD50ip: >1000 mg/kg
In vitro
  IC50 at 72 h: 1.58 µg/mL (≈ 3.84 µM)

## O=C1C2=C(C(=O)c3ccccc31)C(c1ccccc1O)c1sc(=O)[nH]c1S2 (stereo not drawn) [Compound 4a, 11-(2-Hydroxyphenyl)-3, 11-dihydro-2H-benzo[6,7]thiochromeno[2,3-d][1,3]thiazole-2,5,10-trione]
[1]
  inhibition at 6.25 µg/mL: ≥ 90%
  MIC90: < 6.25 µg/mL
M. tuberculosis H37Rv; [3]
  MIC90: 0.6 to 2.7 µg/mL (≈ 1.52 to 6.86 µM)
M. tuberculosis H37Rv
  MIC90: 0.68 µg/mL (≈ 1.73 µM)
Male mice
  LD50ip: 800 mg/kg
In vitro
  IC50 at 72 h: 0.44 µg/mL (≈ 1.12 µM)

## CO[C@H]1/C=C/O[C@@]2(C)Oc3c(C)c(O)c4c(O)c(c(/C=N/N5CCN(C)CC5)c(O)c4c3C2=O)NC(=O)/C(C)=C\C=C\[C@H](C)[C@H](O)[C@@H](C)[C@@H](O)[C@@H](C)[C@H](OC(C)=O)[C@@H]1C [Rifampin, reference compound]
M. tuberculosis H37Rv; [3]
  MIC90: 0.075 µg/mL (≈ 0.0911 µM)
[2]
  IC50 at 72 h: > 6 µg/mL

## CC(C)(C)c1ccc(C2C3=C(Sc4[nH]c(=O)sc42)C(=O)c2ccccc2C3=O)cc1 (stereo not drawn) [Compound 4b, 11-(4-tert-Butylphenyl)-3,11-dihydro-2H-benzo[6,7]thiochromeno[2,3-d][1,3]thiazole-2,5,10-trione]
[1]
  inhibition at 6.25 µg/mL: 61%
  MIC90: > 6.25 µg/mL
Male mice
  LD50ip: 650 mg/kg

## NNC(=O)c1ccncc1 [Isoniazid, isoniazid, reference compound]
M. tuberculosis H37Rv; [3]
  MIC90: 0.044 µg/mL (≈ 0.321 µM)
[2]
  IC50 at 72 h: > 6 µg/mL

## O=C1C2=C(C(=O)c3ccccc31)C(c1ccc(F)cc1)c1sc(=O)[nH]c1S2 (stereo not drawn) [Compound 4h, 11-(4-Fluorophenyl)-3,11-dihydro-2H-benzo[6,7]thiochromeno[2,3-d][1,3]thiazole-2,5,10-trione]
[1]
  inhibition at 6.25 µg/mL: ≥ 90%
  MIC90: < 6.25 µg/mL
Male mice
  LD50ip: 750 mg/kg
In vitro
  IC50 at 72 h: 1.47 µg/mL (≈ 3.72 µM)

## COc1cc(C2C3=C(Sc4[nH]c(=O)sc42)C(=O)c2ccccc2C3=O)ccc1OC(F)F (stereo not drawn) [Compound 4d, 11-[4-(Difluoromethoxy)-3-methoxyphenyl]-3,11-dihydro-2H-benzo[6,7]thio-chromeno[2,3-d][1,3]thiazole-2,5,10-trione]
[1]
  inhibition at 6.25 µg/mL: 65%
  MIC90: > 6.25 µg/mL
Male mice
  LD50ip: 710 mg/kg
